Experimental data as given in US20220257595A1, “MACITENTAN FOR USE IN TREATING PORTOPULMONARY HYPERTENSION” (ACTELION PHARMACEUTICALS LTD, priority 2019, published 2022).
Entries after “also recorded” stand apart in the source; their conditions may differ.

Key:
patients with PoPH [1] = assay: Post-hoc: MELD exception eligibility (mPAP/PVR); type: in vivo, human
Description: (§1) Post-Hoc, Exploratory Criteria: • Proportion of patients with NT-proBNP decrease from above 300 ng/L to below this threshold • Odds ratio for improvement to a more favorable liver transplant perioperative risk category • Odds ratio for becoming eligible for the MELD exception • Odds ratio for improvement to a more favorable waitlist mortality risk category
(§2) Risk categories related to liver transplant (transplant perioperative risk classification, MELD exception eligibility and waitlist mortality risk) were analyzed descriptively by treatment group using shift tables from baseline to Week 12 with categories as defined in Example 1.
(§3) LT perioperative risk classification, MELD exception eligibility, and waitlist mortality analyses were performed after the database lock and SDTMs delivery for the Double-Blind period. Number (%) of patients in following categories were summarized and presented in shift tables. The estimated odds ratio for risk improvement and corresponding 95% confidence intervals were obtained from an exact logistic regression (macitentan vs placebo) with factors for treatment and risk category at baseline.
In general, liver grafts are attributed in priority to patients who need a liver transplant the most urgently. This assessment lies mostly on the Model for End-stage Liver Disease (MELD) score: the higher the score, the higher the patient's priority on the waiting list. In PoPH, by the time MELD score is high enough to obtain a liver graft, the hemodynamic state is generally too severely impaired for the procedure. In the US, a PoPH MELD exception rule (MELD exception) is in place to facilitate access to a liver graft to patients with PoPH who attain mPAP ≤[…] and PVR ≤400 dyn·sec·cm^−5 with PAH treatment. Patients are priority-ranked on the waitlist with a higher MELD score than their actual score. This allows obtaining a liver graft at a time when liver impairment is moderate, before cardiopulmonary impairment becomes a contraindication to transplant.

patients with PoPH [2] = assay: PORTICO: Borg dyspnea index after 6MWT; type: in vivo, human; conditions: DB period
Description: (iv) 6-minute walk test, including Borg dyspnea index: The 6MWT was performed at Screening, Baseline (Visit 2/Randomization), and then every Visit until EOT-DB or EOT-OL, whichever came last. It is a non-encouraged test that measures the distance walked by the patient in six minutes. It is important that for each individual patient the 6MWT was conducted under the same conditions throughout the study (e.g., same location, same tester, same time of day, with or without nasal oxygen therapy and where applicable with same flow rate as Baseline). The Borg dyspnea index was evaluated after each 6MWT. It rates dyspnea on a scale from 0 to 10.
Double-blind treatment period: Changes from baseline to Week 12 in HVPG/HVPG (central review) and Borg dyspnea index (related to the DB treatment period) are summarized by treatment group in the FAS using descriptive statistics.

[3] = system: endothelin A and B receptors; conditions: nonclinical in vivo studies; cited from earlier work
[4] = PORTICO PK substudy: steady-state plasma macitentan and ACT-132577; type: in vivo, human
Description: It was planned to enroll at least 20 patients who were on steady-state treatment with macitentan (i.e., at least 4 weeks) into the PK substudy. The substudy was conducted in consenting patients from all centers across all regions who agreed to participate. The substudy consisted of the following periods:
PK assessments period: PK assessments were to be performed after OL study treatment had been taken for at least 4 weeks. The substudy comprised two visits (Day 1: Enrollment and Day 2: Conclusion). See, FIG. 2. Subject eligibility was first checked on Day 1 of the PK substudy prior to the start of assessments.
PK substudy: On Day 1 of the PK substudy, the study treatment was required to be taken directly after the pre-dose blood sample. On Day 2 of the PK substudy, study treatment was required to be taken after the collection of the last PK blood sample (24 hours post Day 1 dose).
F3. Pharmacokinetic Endpoints for Macitentan and its Active Metabolite ACT-132577 • The area under the plasma concentration-time curve during one dosing interval (AUCt). • Maximum plasma concentration (Cmax) during a dosing interval. • The time to reach maximum plasma concentration (tmax) during a dosing interval.
(i) Timing for sampling: For the PK assessment, blood samples were drawn at the following time points: • PK substudy Day 1: Immediately before study treatment administration in the morning (pre-dose) and 1 h, 3 h, 5 h, 6 h, 7 h, 8 h, 9 h, 10 h, 12 h, and 14 h post-dose. • PK substudy Day 2: 24 h post-dose.
(iii) Bioanalysis: A validated liquid chromatography coupled to mass spectrometry method was used for determining the concentrations of macitentan and its metabolite ACT-132577 in plasma. The limit of quantification (LOQ) for both analytes was 1 ng/mL.
The measured individual plasma concentrations of macitentan and its metabolite ACT-132577 were used to directly obtain Cmax and tmax. AUCT was calculated according to the linear trapezoidal rule using the measured concentration-time values above the LOQ during one dosing interval. The PK variables were calculated on the basis of the real (actual) blood sampling time points. For mean value calculations, all values below the LOQ (below the limit of quantification (BLQ) values) were set to zero if ≤50% of the values at a given time point were BLQ. If >50% of the values at a given time point were BLQ, no mean value was calculated. Mean concentration-time profiles were generated using these criteria. The individual and mean plasma concentration-time profiles were plotted on a linear scale. The derived PK variables for macitentan and ACT-132577 (AUCT, Cmax, tmax) are listed by patient. Plasma concentrations per time point were summarized using arithmetic mean, minimum, median, maximum, standard deviation (SD), standard error (SE), and two-sided 95% confidence interval of the mean. […] (*For tmax the geometric mean and its 95% confidence interval were not calculated).

patients with PoPH [5] = assay: Post-hoc: liver transplant perioperative risk classification (mPAP categories); type: in vivo, human; conditions: for LT perioperative risk classification: Week 12 High risk (mPAP => 45 mm Hg): 10 mg, N = 43
Description: as §1, §2, §3
The presence of moderate to severe pulmonary hypertension in patients with liver disease increases the risk of graft dysfunction and cardiopulmonary-related mortality after orthotopic liver transplant. According to the International Liver Transplant Society (ILTS) Practice Guidelines, liver transplant is conditional to appropriate hemodynamics due to the risk of cardiopulmonary-related mortality after liver transplant: • mPAP ≥45 mmHg is an absolute contraindication to liver transplant (high risk) as it is associated with 100% cardiopulmonary mortality • mPAP ≥35 mmHg and <45 mmHg, with increased PVR is associated with increased mortality (intermediate risk) of about 50%
mPAP <35 mmHg is associated with a low risk for liver transplant • LT perioperative risk classification

[6] = Week 12, exact logistic regression

## CCCNS(=O)(=O)Nc1ncnc(OCCOc2ncc(Br)cn2)c1-c1ccc(Br)cc1 [macitentan, N-[5-(4-Bromophenyl)-6-[2-[(5-bromo-2-pyrimidinyl)oxy]ethoxy]-4-pyrimidinyl]-N′-propylsulfamide]
Patients with PoPH [1]; Baseline Category 1 (n = 1), Full analysis set, 10 mg, N = 43
  Liver transplant (MELD exception) eligibility based on mPAP/PVR: Week 12 Category 2 (mPAP ≤ 35 and PVR ≤ 400 dyn · sec/cm^5 = NO): 0 n (%)
Patients with PoPH [1]; Total, Full analysis set, 10 mg, N = 43
  Liver transplant (MELD exception) eligibility based on mPAP/PVR: Week 12 Category 1 (mPAP ≤ 35 and PVR ≤ 400 dyn · sec/cm^5 = YES): 9 n (%)
Patients with PoPH [1]; [6]
  Odds of becoming eligible for the MELD exception, macitentan vs placebo: 4.51 times
Patients with PoPH [1]; after 12 weeks, FAS no imputation, 8 patients
  Patients not meeting MELD exception criteria at baseline who met them (mPAP ≤35 mmHg and PVR ≤400 dyn·sec·cm^−5): 18.6%
Patients with PoPH [1]; macitentan vs placebo, exact logistic regression, 95% CI 0.822, 46.462, p-value 0.0958
  Liver transplant eligibility: Between-treatment odds ratio for improvement, OR: 4.512
Patients with PoPH [2]
  Change in Borg dyspnea score over time: no change
[3]
  Potency compared with bosentan: higher potency than bosentan
[4]
  Plasma exposure in PoPH patients compared with other forms of PAH / other macitentan studies: consistent between PoPH patients and patients with other forms of PAH; also recorded: comparable between patients with PoPH and other forms of PAH; also recorded: consistent with those in other macitentan studies
[4]; OL macitentan 10 mg o.d. at least 4 weeks, PoPH patients, n=8
  Trough plasma concentration, mean±SD: 213.1 ± 86.4 ng/mL
[4]; human, plasma, oral, macitentan 10 mg o.d., PoPH patients, PKS 10 patients, read-out: Cmax, geometric mean (95% confidence interval)
  Cmax: 369 ng/mL
[4]; human, plasma, oral, macitentan 10 mg o.d., PoPH patients, PKS 10 patients, read-out: tmax, median (range)
  Tmax: 6.5 h
[4]; human, plasma, oral, one dosing interval, macitentan 10 mg o.d., PoPH patients, read-out: AUCT, geometric mean (95% confidence interval)
  AUC(0-t): 6660 ng·h/mL
Patients with PoPH [5]; Baseline Intermediate risk (n = 16)
  LT perioperative risk classification: Week 12 High risk (mPAP => 45 mm Hg): 0 n (%)
Patients with PoPH [5]; Baseline Low risk (n = 2)
  LT perioperative risk classification: Week 12 High risk (mPAP => 45 mm Hg): 0 n (%)
Patients with PoPH [5]; [6]
  Odds to change to a more favorable LT perioperative risk category, macitentan vs placebo: 3.73 times
Patients with PoPH [5]; after 12 weeks, FAS no imputation, 18 patients
  Patients improving to a more favorable LT perioperative risk category: 41.9%
Patients with PoPH [5]; macitentan vs placebo, exact logistic regression, 95% CI 1.175, 13.401, p-value 0.0224
  LT perioperative risk: Between-treatment odds ratio for improvement, OR: 3.732
